Patent US7981633B2, “Method for measuring tyrosine kinase phosphorylation” (Merck Patent GmbH, priority 2005, dated 2011)

Tests used:
IGFR1 = IGFR1 (Homo sapiens, UniProt P08069); assay: Luminex bead sandwich assay of IGFR1 autophosphorylation in HT29 cell lysate after IGF activation; assay type: cell-based; conditions: HT29 cells, 30 μM inhibitor 45 min, IGF 100 ng/ml
FAK = FAK (Homo sapiens, UniProt Q05397); assay: Luminex bead sandwich assay of FAK autophosphorylation in HT29 cell lysate after FCS activation; assay type: cell-based; conditions: HT29 cells, 30 μM inhibitor 45 min
Met = Met (Homo sapiens, UniProt P08581); assay: Luminex bead sandwich assay of Met autophosphorylation in HT29 cell lysate after HGF activation; conditions: HT29 cells, 30 μM inhibitor 45 min, HGF 100 ng/ml
Chain of Met (P08581 25-1390): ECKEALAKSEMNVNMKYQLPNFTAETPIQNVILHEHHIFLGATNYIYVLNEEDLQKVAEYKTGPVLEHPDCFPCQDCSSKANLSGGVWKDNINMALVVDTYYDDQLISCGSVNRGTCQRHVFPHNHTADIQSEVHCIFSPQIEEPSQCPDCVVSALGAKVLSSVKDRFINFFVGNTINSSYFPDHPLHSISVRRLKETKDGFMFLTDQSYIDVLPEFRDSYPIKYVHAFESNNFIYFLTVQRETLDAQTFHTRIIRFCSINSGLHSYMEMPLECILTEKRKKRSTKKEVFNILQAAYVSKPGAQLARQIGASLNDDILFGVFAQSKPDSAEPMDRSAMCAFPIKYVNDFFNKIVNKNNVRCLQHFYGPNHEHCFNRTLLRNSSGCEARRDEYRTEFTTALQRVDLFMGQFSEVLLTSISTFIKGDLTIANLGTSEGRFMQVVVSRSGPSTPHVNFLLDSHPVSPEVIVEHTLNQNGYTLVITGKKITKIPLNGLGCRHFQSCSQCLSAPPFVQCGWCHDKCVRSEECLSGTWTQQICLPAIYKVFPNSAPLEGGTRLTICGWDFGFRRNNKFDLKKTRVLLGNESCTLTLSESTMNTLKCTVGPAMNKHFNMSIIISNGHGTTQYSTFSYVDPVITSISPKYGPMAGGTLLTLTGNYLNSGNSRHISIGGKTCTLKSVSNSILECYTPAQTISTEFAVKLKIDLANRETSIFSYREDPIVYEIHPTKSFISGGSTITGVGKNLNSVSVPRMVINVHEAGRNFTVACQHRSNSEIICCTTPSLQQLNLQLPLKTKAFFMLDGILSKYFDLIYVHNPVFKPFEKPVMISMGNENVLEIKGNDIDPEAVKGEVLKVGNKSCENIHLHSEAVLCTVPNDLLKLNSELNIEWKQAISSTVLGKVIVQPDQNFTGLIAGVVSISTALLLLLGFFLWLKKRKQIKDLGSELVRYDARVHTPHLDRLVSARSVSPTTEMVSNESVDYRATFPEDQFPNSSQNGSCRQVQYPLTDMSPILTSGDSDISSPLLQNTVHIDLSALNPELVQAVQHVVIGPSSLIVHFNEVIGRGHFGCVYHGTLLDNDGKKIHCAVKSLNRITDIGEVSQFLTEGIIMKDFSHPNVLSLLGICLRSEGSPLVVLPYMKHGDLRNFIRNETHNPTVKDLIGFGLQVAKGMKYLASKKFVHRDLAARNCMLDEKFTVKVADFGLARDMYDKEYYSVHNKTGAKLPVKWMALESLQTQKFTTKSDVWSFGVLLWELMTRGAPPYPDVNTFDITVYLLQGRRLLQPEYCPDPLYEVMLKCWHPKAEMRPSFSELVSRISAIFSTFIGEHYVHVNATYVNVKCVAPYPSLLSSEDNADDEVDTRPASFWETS
Protocol: Human tumor cell line HT29 (colorectal carcinoma) were obtained from ATCC and maintained in Dulbecco's modified Eagle's medium containing 10% fetal calf serum at 37° C. in 5% CO2. 16-20 h before inhibitor treatment HT29 cells were starved in medium without fetal calf serum. Cells were incubated for 45 min with 30 μM kinase inhibitor (EGFR-lnhibitor, FAK-inhibitor, IGFR1-inhibitor or Met-Inhibitor) or in medium without kinase inhibitor as a positive control.
Activation of the kinases was initiated for 10-15 min with 100 ng/ml of the corresponding ligands EGF, IGF, HGF for Met kinase or fetal calf serum (FCS) for FAK kinase. […]
2.5×10^6 Luminex microspheres were coupled with 50 μg/ml antibody as described by the manufacturer (capture antibodies for EGFR, IGFR, MET and Fak were obtained from R&D-Systems and Upstate). […] After three wash steps with assay buffer, phosphorylated tyrosin-residues were detected with a biotinylated anti-phospho-tyrosin antibody (1 h agitation at room temperature; Santa Cruz Biotechnology) and phycoerythrin-conjugated Streptavidin (45 min agitation at room temperature; Dianova). Microspheres were analysed in a Luminex™ 100 machine as described by the manufacturer.

Chain of IGFR1 (P08069 31-1367): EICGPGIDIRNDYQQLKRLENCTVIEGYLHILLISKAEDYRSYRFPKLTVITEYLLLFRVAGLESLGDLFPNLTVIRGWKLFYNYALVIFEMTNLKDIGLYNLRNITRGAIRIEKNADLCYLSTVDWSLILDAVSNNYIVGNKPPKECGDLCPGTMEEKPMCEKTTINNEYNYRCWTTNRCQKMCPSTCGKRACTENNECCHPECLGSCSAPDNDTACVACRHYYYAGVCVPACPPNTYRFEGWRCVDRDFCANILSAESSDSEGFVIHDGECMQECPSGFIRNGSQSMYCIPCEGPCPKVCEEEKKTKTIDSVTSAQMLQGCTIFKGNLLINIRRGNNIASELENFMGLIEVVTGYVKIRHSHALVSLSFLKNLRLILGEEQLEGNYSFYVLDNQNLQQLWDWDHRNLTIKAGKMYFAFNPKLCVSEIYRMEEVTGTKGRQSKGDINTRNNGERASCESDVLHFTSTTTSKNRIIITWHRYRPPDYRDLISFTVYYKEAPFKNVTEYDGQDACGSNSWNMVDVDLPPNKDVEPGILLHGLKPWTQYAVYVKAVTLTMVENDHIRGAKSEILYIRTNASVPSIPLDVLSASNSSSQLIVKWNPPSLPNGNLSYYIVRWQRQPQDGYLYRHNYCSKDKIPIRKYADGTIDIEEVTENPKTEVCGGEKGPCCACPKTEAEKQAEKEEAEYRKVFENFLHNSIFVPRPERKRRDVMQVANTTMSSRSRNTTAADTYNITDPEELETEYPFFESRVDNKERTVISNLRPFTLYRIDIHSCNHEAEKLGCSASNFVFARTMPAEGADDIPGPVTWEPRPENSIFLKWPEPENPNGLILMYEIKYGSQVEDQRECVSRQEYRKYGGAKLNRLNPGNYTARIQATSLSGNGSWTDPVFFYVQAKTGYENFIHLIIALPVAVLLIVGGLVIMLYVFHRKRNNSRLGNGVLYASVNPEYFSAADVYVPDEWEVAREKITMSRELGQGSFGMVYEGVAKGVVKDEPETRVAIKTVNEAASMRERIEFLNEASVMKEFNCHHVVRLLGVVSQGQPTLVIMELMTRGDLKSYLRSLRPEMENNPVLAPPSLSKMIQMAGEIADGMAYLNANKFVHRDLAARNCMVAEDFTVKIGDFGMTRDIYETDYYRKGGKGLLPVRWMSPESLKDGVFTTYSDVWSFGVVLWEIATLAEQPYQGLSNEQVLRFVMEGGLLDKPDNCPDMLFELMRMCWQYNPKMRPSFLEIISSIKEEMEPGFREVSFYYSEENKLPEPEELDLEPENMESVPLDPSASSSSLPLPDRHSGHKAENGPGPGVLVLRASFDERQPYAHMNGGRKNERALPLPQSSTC
Chain of FAK (Q05397 whole entry): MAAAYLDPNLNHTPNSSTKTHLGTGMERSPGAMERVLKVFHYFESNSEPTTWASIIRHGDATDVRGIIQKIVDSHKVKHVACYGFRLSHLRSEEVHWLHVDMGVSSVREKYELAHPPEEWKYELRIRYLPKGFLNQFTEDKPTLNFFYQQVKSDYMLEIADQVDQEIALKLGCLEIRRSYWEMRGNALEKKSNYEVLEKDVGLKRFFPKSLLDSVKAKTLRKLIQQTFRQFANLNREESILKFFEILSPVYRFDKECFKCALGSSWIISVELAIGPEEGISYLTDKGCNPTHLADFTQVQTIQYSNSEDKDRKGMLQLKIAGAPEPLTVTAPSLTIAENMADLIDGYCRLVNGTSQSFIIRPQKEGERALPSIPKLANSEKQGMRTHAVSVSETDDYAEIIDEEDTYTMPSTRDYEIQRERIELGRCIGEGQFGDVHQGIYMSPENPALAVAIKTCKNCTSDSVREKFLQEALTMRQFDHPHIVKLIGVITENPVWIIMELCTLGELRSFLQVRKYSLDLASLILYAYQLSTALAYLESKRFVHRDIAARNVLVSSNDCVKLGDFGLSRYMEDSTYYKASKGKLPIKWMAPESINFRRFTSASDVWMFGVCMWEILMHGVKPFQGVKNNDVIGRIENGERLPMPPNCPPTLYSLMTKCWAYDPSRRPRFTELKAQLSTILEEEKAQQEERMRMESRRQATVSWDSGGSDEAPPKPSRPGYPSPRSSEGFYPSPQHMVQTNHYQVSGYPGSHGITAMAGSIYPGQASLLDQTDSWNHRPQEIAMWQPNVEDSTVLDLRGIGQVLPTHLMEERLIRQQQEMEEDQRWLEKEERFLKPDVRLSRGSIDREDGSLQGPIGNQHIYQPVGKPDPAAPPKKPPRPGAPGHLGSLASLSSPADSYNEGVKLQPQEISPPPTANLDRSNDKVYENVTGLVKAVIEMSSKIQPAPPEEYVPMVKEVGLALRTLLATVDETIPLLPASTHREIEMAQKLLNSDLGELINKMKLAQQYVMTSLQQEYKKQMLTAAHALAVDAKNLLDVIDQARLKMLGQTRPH

SMILES | IGFR1-phosphorylation, mean fluorescence intensity (MFI) (IGFR1; multiple capture antibodies (EGFR, IGFR, FAK, Met) in one cavity, control without inhibitor MFI=673) | IGFR1-phosphorylation, mean fluorescence intensity (MFI) (IGFR1; single capture antibody (IGFR1) in one cavity, control without inhibitor MFI=529) | FAK-phosphorylation, mean fluorescence intensity (MFI) (FAK; multiple capture antibodies (EGFR, IGFR, FAK, Met) in one cavity, control without inhibitor MFI=1143) | FAK-phosphorylation, mean fluorescence intensity (MFI) (FAK; single capture antibody (FAK) in one cavity, control without inhibitor MFI=957) | Met-phosphorylation, mean fluorescence intensity (MFI) (Met; multiple capture antibodies (EGFR, IGFR, FAK, Met) in one cavity, control without inhibitor MFI=817) | Met-phosphorylation, mean fluorescence intensity (MFI) (Met; single capture antibody (Met) in one cavity, control without inhibitor MFI=675)
COc1cc(Nc2nccc(Nc3cnc4ccccc4c3)n2)cc(OC)c1OC [FAK-Kinase inhibitor] | 3 | 3 | 39 | 37 |  | 
Cc1[nH]c(/C=C2\C(=O)Nc3ccc(S(=O)(=O)Cc4c(Cl)cccc4Cl)cc32)c(C)c1C(=O)N1CCC[C@@H]1CN1CCCC1 [Met-Kinase inhibitor] |  |  |  |  | 9 | 9
